ChEMBL document CHEMBL1154250, “Isolation and characterization of peptides from Momordica cochinchinensis seeds” (J Nat Prod, 2009)
The source made the active and inactive calls. The rule behind the calls is not given here. Positions of bridges follow the written chain, without caps; N, C: chain ends. Residues, ends and D or L forms follow the SMILES beside them.

Experiments:
[1] = Inhibition of trypsin at 0.04 to 0.5 uM by UV-visible spectrophotometer
Helicoverpa armigera = assay: Insecticidal activity against Helicoverpa armigera larvae assessed as decrease in weight at 0.825 umol after 96 hrs; format: functional, organism-based
MM96L [2] = assay: Cytotoxicity against human MM96L cells assessed as survivality at 1.3 uM after 3 days by SRB assay; format: functional; details: 72 h, read-out: Survival
[3] = Cytotoxicity against human NFF cells assessed as survivality at 1.3 uM after 3 days by SRB assay; format: cell-based; details: read-out: Survival
MM96L [4] = assay: Cytotoxicity against human MM96L cells assessed as survivality at 2 uM after 3 days by SRB assay; format: functional; details: 72 h, read-out: Survival
[5] = Cytotoxicity against human NFF cells assessed as survivality at 2 uM after 3 days by SRB assay; format: cell-based; details: read-out: Survival
[6] = Toxicity in human erythrocytes assessed as hemolytic activity up to 50 uM after 1 hr; format: cell-based; details: erythrocyte

Question: With `CC[C@H](C)[C@@H]1NC(=O)CNC(=O)[C@H](C(C)C)NC(=O)CNC(=O)[C@@H]2CCCN2C(=O)[C@H]([C@@H](C)O)NC(=O)[C@H](C(C)C)NC(=O)[C@H]([C@@H](C)O)NC(=O)[C@@H]2CCCN2C(=O)[C@H](Cc2c[nH]c3ccccc23)NC(=O)[C@@H]2CSSC[C@@H]3NC(=O)[C@H](CCC(N)=O)NC(=O)[C@H](CCCCN)NC(=O)CNC(=O)[C@H](CCC(=O)O)NC(=O)[C@@H](NC(=O)CN)CSSC[C@H](NC(=O)CNC(=O)CNC(=O)CNC(=O)[C@H](CSSC[C@H](C(=O)N[C@@H](CO)C(=O)N[C@@H](CO)C(=O)N[C@@H](CO)C(=O)O)NC1=O)NC(=O)[C@H](CO)NC(=O)[C@H](CCCNC(=N)N)NC(=O)[C@H](Cc1ccccc1)NC(=O)[C@H](CC(C)C)NC(=O)CNC3=O)C(=O)N[C@@H](CCCNC(=N)N)C(=O)N2` as the compound, how does the inhibition [1] read?
Answer: inactive

Question: What about the Activity (Helicoverpa armigera) of the same compound?
Answer: inactive

Question: Which viability at 1.3 µM (MM96L [2]) does the source give for `CC[C@H](C)[C@@H]1NC(=O)CNC(=O)[C@H](C(C)C)NC(=O)CNC(=O)[C@@H]2CCCN2C(=O)[C@H]([C@@H](C)O)NC(=O)[C@H](C(C)C)NC(=O)[C@H]([C@@H](C)O)NC(=O)[C@@H]2CCCN2C(=O)[C@H](Cc2c[nH]c3ccccc23)NC(=O)[C@@H]2CSSC[C@@H]3NC(=O)[C@@H]4CCCN4C(=O)[C@H](CCCCN)NC(=O)CNC(=O)[C@H](CCC(=O)O)NC(=O)[C@@H](NC(=O)CN)CSSC[C@H](NC(=O)CNC(=O)CNC(=O)CNC(=O)[C@H](CSSC[C@@H](C(=O)N[C@@H](CO)C(=O)N[C@@H](CO)C(=O)N[C@@H](CO)C(=O)O)NC1=O)NC(=O)[C@H](CO)NC(=O)[C@H](CCCNC(=N)N)NC(=O)[C@H](Cc1ccccc1)NC(=O)[C@H](CC(C)C)NC(=O)CNC3=O)C(=O)N[C@@H](CCCNC(=N)N)C(=O)N2` (H-GCEGKPCGLFRSCGGGCRCWPTVTPGVGICSSS-OH; disulfide 2-17, 7-19, 13-30) here?
Answer: 51%

Question: What about the viability at 72 h, 1.3 µM [3] of the same compound?
Answer: 86%

Question: With `CC[C@H](C)[C@@H]1NC(=O)CNC(=O)[C@H](C(C)C)NC(=O)CNC(=O)[C@@H]2CCCN2C(=O)[C@H]([C@@H](C)O)NC(=O)[C@H](C(C)C)NC(=O)[C@H]([C@@H](C)O)NC(=O)[C@@H]2CCCN2C(=O)[C@H](Cc2c[nH]c3ccccc23)NC(=O)[C@@H]2CSSC[C@@H]3NC(=O)[C@H](CCC(N)=O)NC(=O)[C@H](CCCCN)NC(=O)CNC(=O)[C@H](CCC(=O)O)NC(=O)[C@@H](NC(=O)CN)CSSC[C@H](NC(=O)CNC(=O)CNC(=O)CNC(=O)[C@H](CSSC[C@@H](C(=O)N[C@@H](CO)C(=O)N[C@@H](CO)C(=O)N[C@@H](CO)C(=O)O)NC1=O)NC(=O)[C@H](CO)NC(=O)[C@H](CCCNC(=N)N)NC(=O)[C@H](Cc1ccccc1)NC(=O)[C@H](CC(C)C)NC(=O)CNC3=O)C(=O)N[C@@H](CCCNC(=N)N)C(=O)N2` [listing 1 of 2 here] as the compound, how does the viability at 2 µM (MM96L [4]) read?
Answer: 57%

Question: What does the source list for `CC[C@H](C)[C@@H]1NC(=O)CNC(=O)[C@H](C(C)C)NC(=O)CNC(=O)[C@@H]2CCCN2C(=O)[C@H]([C@@H](C)O)NC(=O)[C@H](C(C)C)NC(=O)[C@H]([C@@H](C)O)NC(=O)[C@@H]2CCCN2C(=O)[C@H](Cc2c[nH]c3ccccc23)NC(=O)[C@@H]2CSSC[C@@H]3NC(=O)[C@H](CCC(N)=O)NC(=O)[C@H](CCCCN)NC(=O)CNC(=O)[C@H](CCC(=O)O)NC(=O)[C@@H](NC(=O)CN)CSSC[C@H](NC(=O)CNC(=O)CNC(=O)CNC(=O)[C@H](CSSC[C@@H](C(=O)N[C@@H](CO)C(=O)N[C@@H](CO)C(=O)N[C@@H](CO)C(=O)O)NC1=O)NC(=O)[C@H](CO)NC(=O)[C@H](CCCNC(=N)N)NC(=O)[C@H](Cc1ccccc1)NC(=O)[C@H](CC(C)C)NC(=O)CNC3=O)C(=O)N[C@@H](CCCNC(=N)N)C(=O)N2` [listing 2 of 2 here]?
Answer: viability at 72 h, 2 µM [5]: 89%; Activity [6]: Non-toxic
